Experimental data from ChEMBL document CHEMBL4350975, “Assessment of quinazolinone derivatives as novel non-nucleoside hepatitis B virus inhibitors” (Eur J Med Chem, 2019).

Columns and labels:
[1] = Cytotoxicity against human HepG2.2.15 cells assessed as cell viability measured after 72 hrs by MTT assay; type: cell-based, HepG2 2.2.15
[2] = target: Core antigen (Hepatitis B virus) (UniProt Q03732); assay: Inhibition of capsid protein in Hepatitis B virus infected in human HepG2.2.15 cells assessed as reduction in viral DNA level supplemented with fresh medium containing compound every 2 days and measured after 6 days by RT-PCR analysis relative to control; type: cell-based; set-up: concentration or dose not given beside the values; conditions: concentration not given here
[3] = Selectivity index, ratio of CC50 for human HepG2.2.15 cells to IC50 for capsid protein in Hepatitis B virus infected in human HepG2.2.15 cells assessed as reduction in viral DNA level; type: toxicity, cell-based; conditions: read-out: Ratio CC50/IC50
[4] = Selectivity index, ratio of CC50 for human HepG2.2.15 cells to IC50 for capsid protein in lamivudine/entecavir-resistant Hepatitis B virus harboring rtL180M/rtM204V/rt184L mutant infected in human HepG2.2.15 cells assessed as reduction in viral DNA level; type: toxicity, cell-based; conditions: read-out: Ratio CC50/IC50
[5] = target: Core antigen (Hepatitis B virus) (UniProt Q03732); assay: Inhibition of capsid protein in lamivudine/entecavir-resistant Hepatitis B virus harboring rtL180M/rtM204V/rt184L mutant infected in human HepG2.2.15 cells assessed as reduction in viral DNA level at 100 uM measured after 72 hrs by PCR analysis relative to control; type: cell-based
[6] = target: Core antigen (Hepatitis B virus) (UniProt Q03732); assay: Inhibition of capsid protein in wild type Hepatitis B virus infected in human HepG2.2.15 cells assessed as reduction in viral DNA level at 100 uM measured after 72 hrs by PCR analysis relative to control; type: cell-based
[7] = target: Core antigen (Hepatitis B virus) (UniProt Q03732); assay: Inhibition of capsid protein in lamivudine/entecavir-resistant Hepatitis B virus harboring rtL180M/rtM204V/rt184L mutant infected in human HepG2.2.15 cells assessed as reduction in viral DNA level at 4 uM measured after 72 hrs by PCR analysis relative to control; type: cell-based
[8] = target: Core antigen (Hepatitis B virus) (UniProt Q03732); assay: Inhibition of capsid protein in wild type Hepatitis B virus infected in human HepG2.2.15 cells assessed as reduction of viral DNA level at 4 uM measured after 72 hrs by PCR analysis relative to control; type: cell-based
[9] = target: Core antigen (Hepatitis B virus) (UniProt Q03732); assay: Inhibition of capsid protein in wild type Hepatitis B virus infected in human HepG2.2.15 cells assessed as reduction of viral DNA level at 10 uM measured after 72 hrs by PCR analysis relative to control; type: cell-based
[10] = target: Core antigen (Hepatitis B virus) (UniProt Q03732); assay: Inhibition of capsid protein in lamivudine/entecavir-resistant Hepatitis B virus harboring rtL180M/rtM204V/rt184L mutant infected in human HepG2.2.15 cells assessed as reduction in viral DNA level at 10 uM measured after 72 hrs by PCR analysis relative to control; type: cell-based

Chain of Core antigen (Hepatitis B virus) (Q03732 as listed by the source): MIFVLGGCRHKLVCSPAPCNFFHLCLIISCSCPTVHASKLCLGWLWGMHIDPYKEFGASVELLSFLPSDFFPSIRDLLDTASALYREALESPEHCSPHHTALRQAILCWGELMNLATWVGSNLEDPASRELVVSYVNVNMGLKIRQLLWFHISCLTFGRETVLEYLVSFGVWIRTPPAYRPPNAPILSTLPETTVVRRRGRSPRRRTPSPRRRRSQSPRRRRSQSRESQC

Compound	CC50 at 72 h [1] [µM]	inhibition [2] [%]	other results
COc1ccccc1CSc1nc2ccc(Cl)cc2c(=O)n1Cc1cccs1	> 100	63.3	
COc1ccc(C(C)=O)cc1CSc1nc2ccc(F)cc2c(=O)n1Cc1cccs1	89	30.7	
COc1ccc(C(C)=O)cc1CSc1nc2ccc(OCCN(C)C)cc2c(=O)n1Cc1cccs1	18	33.9	
COc1ccccc1CSc1nc2ccc(F)cc2c(=O)n1Cc1cccs1	> 100	79.6	selectivity ratio [3]: > 40.5
COc1ccc(C(C)=O)cc1CSc1nc2ccc(I)cc2c(=O)n1Cc1cccs1	81.1	45.4	
Nc1ccn([C@@H]2CS[C@H](CO)O2)c(=O)n1 [LAMIVUDINE]	> 100	94.3	selectivity ratio [4]: < 1; selectivity ratio [3]: > 1000; inhibition [5]: 17.7%; inhibition [6]: 90.7%
COc1ccccc1CSc1nc2ccc(C)cc2c(=O)n1Cc1cccs1	> 100	69.4	
COc1ccccc1CSc1nc2ccc(O)cc2c(=O)n1Cc1cccs1	> 100	0.59	
COc1ccc(C(C)=O)cc1CSc1nc2ccc(O)cc2c(=O)n1Cc1cccs1	> 100	3.26	
COc1ccc(C(C)=O)cc1CSc1nc2ccc(Br)cc2c(=O)n1Cc1cccs1	> 100	46	
CCN(CC)CCOc1ccc2nc(SCc3cc(C(C)=O)ccc3OC)n(Cc3cccs3)c(=O)c2c1	8.76	42	
O=c1c2ccccc2nc(SCc2ccccc2)n1Cc1cccs1	> 100	11	
COc1ccc(C(C)=O)cc1CSc1nc2ccccc2c(=O)n1Cc1cccs1	71.5	47.1	selectivity ratio [3]: 17.6
CN(C)CCOc1ccc2nc(SCc3ccccc3)n(Cc3cccs3)c(=O)c2c1	21.1 to 26.7	83.3	selectivity ratio [4]: 14.1; inhibition [7]: 80.9%; selectivity ratio [3]: 13.7; inhibition [8]: 82%
O=c1c2cc(Cl)ccc2nc(SCc2ccccc2)n1Cc1cccs1	> 100	16.1	
O=c1c2cc(O)ccc2nc(SCc2ccccc2)n1Cc1cccs1	> 100	5.62	
COc1ccccc1CSc1nc2ccc(OCCN(C)C)cc2c(=O)n1Cc1cccs1	14.7	53.9	
O=c1c2cc(Br)ccc2nc(SCc2ccccc2)n1Cc1cccs1	> 100	16.7	
COc1ccccc1CSc1nc2ccc(I)cc2c(=O)n1Cc1cccs1	> 100	65.9	
C=C1[C@H](CO)[C@@H](O)C[C@@H]1n1cnc2c(=O)[nH]c(N)nc21			inhibition [9]: 98.1%; inhibition [10]: 22.6%
O=c1c2cc(F)ccc2nc(SCc2ccccc2)n1Cc1cccs1	> 100	9.53	
COc1ccc(C(C)=O)cc1CSc1nc2ccc(C)cc2c(=O)n1Cc1cccs1	> 100	56.1	
COc1ccc(C(C)=O)cc1CSc1nc2ccc(Cl)cc2c(=O)n1Cc1cccs1	74.6	40.7	
COc1ccccc1CSc1nc2ccc(Br)cc2c(=O)n1Cc1cccs1	> 100	64.2	
CCN(CC)CCOc1ccc2nc(SCc3ccccc3OC)n(Cc3cccs3)c(=O)c2c1	10.1	76	selectivity ratio [3]: 5.25
CCN(CC)CCOc1ccc2nc(SCc3ccccc3)n(Cc3cccs3)c(=O)c2c1	15.8 to 18	98.4	selectivity ratio [4]: 21.4; inhibition [7]: 94%; selectivity ratio [3]: 22.2; inhibition [8]: 96.1%
COc1ccccc1CSc1nc2ccccc2c(=O)n1Cc1cccs1	> 100	76.3	selectivity ratio [3]: > 35.6
O=c1c2cc(I)ccc2nc(SCc2ccccc2)n1Cc1cccs1	> 100	1.87	
Cc1ccc2nc(SCc3ccccc3)n(Cc3cccs3)c(=O)c2c1	> 100	13.8	
